Measurements reported in US10597388B2, “Pyridazinone herbicides” (FMC CORPORATION, priority 2014, dated 2020).

How the values were obtained:
Type in all cases: in vivo
[1] = tested on: blackgrass (Alopecurus myosuroides); test: Test C greenhouse herbicide test, pre- and postemergence
Procedure, shortened: (§1)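 Visual ratings on a 0 to 100 scale (0 = no effect, 100 = complete control) versus untreated controls, scored 13–15 d after treatment. Soil-applied preemergence to seeded loam/sand; foliar postemergence to 1- to 4-leaf plants (2–18 cm) in peat-vermiculite mix; compounds formulated in solvent plus surfactant.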

corn (Zea mays) = test: as above
Procedure, shortened: as §1

[2] = tested on: crabgrass, large (large crabgrass, Digitaria sanguinalis); test: as above
Procedure, shortened: as §1

[3] = tested on: foxtail, giant (giant foxtail, Setaria faberii); test: as above
Procedure, shortened: as §1

[4] = tested on: johnsongrass (Sorghum halepense); test: as above
Procedure, shortened: as §1

[5] = tested on: lambsquarters (Chenopodium album); test: as above
Procedure, shortened: as §1

[6] = tested on: morningglory (Ipomoea coccinea); test: as above
Procedure, shortened: as §1

[7] = tested on: oilseed rape (Brassica napus); test: as above
Procedure, shortened: as §1

[8] = tested on: pigweed (Amaranthus retroflexus); test: as above
Procedure, shortened: as §1

[9] = tested on: ragweed (common ragweed, Ambrosia elatior); test: as above
Procedure, shortened: as §1

[10] = tested on: ryegrass, Italian (Italian ryegrass, Lolium multiflorum); test: as above
Procedure, shortened: as §1

soybean (Glycine max) = test: as above
Procedure, shortened: as §1

[11] = tested on: velvetleaf (Abutilon theophrasti); test: as above
Procedure, shortened: as §1

[12] = tested on: waterhemp (common waterhemp, Amaranthus rudis); test: as above
Procedure, shortened: as §1

kochia (Kochia scoparia) = test: Test C greenhouse herbicide test, postemergence
Procedure, shortened: (§2)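 Steps: pot plants in peat-based medium; spray postemergence at 1- to 4-leaf stage; hold in greenhouse 13 to 15 d; score visually against controls from 0 (no effect) to 100 (complete control).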

[13] = tested on: oat, wild (wild oat, Avena fatua); test: Test C greenhouse herbicide test, postemergence
Procedure, shortened: as §2

[14] = Postemergence, 31 g ai/ha, scale 0 to 100 (0 no effect, 100 complete control)
[15] = Postemergence, 62 g ai/ha, 0 to 100 scale (0 no effect, 100 complete control)
[16] = Postemergence, 250 g ai/ha, scale 0 to 100, 0 no effect, 100 complete control, 13 to 15 d
[17] = Preemergence, 31 g ai/ha, scale 0 to 100, 0 is no effect, 100 is complete control
[18] = Preemergence, 62 g ai/ha, scale 0 to 100, 0 is no effect, 100 is complete control
[19] = Preemergence, 125 g ai/ha, scale 0 to 100, 0 is no effect, 100 is complete control
[20] = Preemergence, 250 g ai/ha, scale 0 to 100 (0 no effect, 100 complete control)
[21] = postemergence, 125 g ai/ha, scale 0 to 100, 0 no effect, 100 complete control

SMILES: CC(=O)Oc1c(C)nn(C)c(=O)c1-c1c(C)cc(C)c2ccccc12 [Compound 153]
- Plant response rating, Blackgrass [1, 14]: 80
- Blackgrass plant response rating [1, 15]: 85
- Plant response rating, Blackgrass [1, 16]: 90
- Plant response rating, Blackgrass [1, 17]: 90
- Plant response rating, Blackgrass [1, 18]: 90
- Plant response rating, Blackgrass [1, 19]: 95
- Blackgrass plant response rating [1, 20]: 95
- Blackgrass plant response rating [1, 21]: 90
- Plant response rating, Corn (corn (Zea mays); [14]): 20
- Corn plant response rating (corn (Zea mays); [15]): 35
- Plant response rating, Corn (corn (Zea mays); [16]): 10
- Plant response rating, Corn (corn (Zea mays); [17]): 0
- Plant response rating, Corn (corn (Zea mays); [18]): 0
- Plant response rating, Corn (corn (Zea mays); [19]): 40
- Corn plant response rating (corn (Zea mays); [20]): 65
- Corn plant response rating (corn (Zea mays); [21]): 25
- Plant response rating, Crabgrass, Large [2, 14]: 55
- Crabgrass, Large plant response rating [2, 15]: 50
- Plant response rating, Crabgrass, Large [2, 16]: 75
- Plant response rating, Crabgrass, Large [2, 17]: 80
- Plant response rating, Crabgrass, Large [2, 18]: 100
- Plant response rating, Crabgrass, Large [2, 19]: 98
- Crabgrass, Large plant response rating [2, 20]: 100
- Crabgrass, Large plant response rating [2, 21]: 50
- Plant response rating, Foxtail, Giant [3, 14]: 80
- Foxtail, Giant plant response rating [3, 15]: 85
- Plant response rating, Foxtail, Giant [3, 16]: 95
- Plant response rating, Foxtail, Giant [3, 17]: 98
- Plant response rating, Foxtail, Giant [3, 18]: 100
- Plant response rating, Foxtail, Giant [3, 19]: 100
- Foxtail, Giant plant response rating [3, 20]: 100
- Foxtail, Giant plant response rating [3, 21]: 90
- Plant response rating, Johnsongrass [4, 14]: 10
- Johnsongrass plant response rating [4, 15]: 5
- Plant response rating, Johnsongrass [4, 16]: 15
- Plant response rating, Johnsongrass [4, 17]: 25
- Plant response rating, Johnsongrass [4, 18]: 50
- Plant response rating, Johnsongrass [4, 19]: 65
- Johnsongrass plant response rating [4, 20]: 70
- Johnsongrass plant response rating [4, 21]: 10
- Plant response rating, Lambsquarters [5, 14]: 85
- Lambsquarters plant response rating [5, 15]: 90
- Plant response rating, Lambsquarters [5, 16]: 95
- Plant response rating, Lambsquarters [5, 17]: 95
- Plant response rating, Lambsquarters [5, 18]: 100
- Plant response rating, Lambsquarters [5, 19]: 100
- Lambsquarters plant response rating [5, 20]: 98
- Lambsquarters plant response rating [5, 21]: 95
- Plant response rating, Morningglory [6, 14]: 98
- Morningglory plant response rating [6, 15]: 100
- Plant response rating, Morningglory [6, 16]: 100
- Plant response rating, Morningglory [6, 17]: 95
- Plant response rating, Morningglory [6, 18]: 90
- Plant response rating, Morningglory [6, 19]: 98
- Morningglory plant response rating [6, 20]: 98
- Morningglory plant response rating [6, 21]: 98
- Plant response rating, Oilseed Rape [7, 14]: 90
- Oilseed Rape plant response rating [7, 15]: 90
- Plant response rating, Oilseed Rape [7, 16]: 90
- Plant response rating, Oilseed Rape [7, 17]: 95
- Plant response rating, Oilseed Rape [7, 18]: 100
- Plant response rating, Oilseed Rape [7, 19]: 98
- Oilseed Rape plant response rating [7, 20]: 100
- Oilseed Rape plant response rating [7, 21]: 90
- Plant response rating, Pigweed [8, 14]: 85
- Pigweed plant response rating [8, 15]: 75
- Plant response rating, Pigweed [8, 16]: 85
- Plant response rating, Pigweed [8, 17]: 100
- Plant response rating, Pigweed [8, 18]: 100
- Plant response rating, Pigweed [8, 19]: 100
- Pigweed plant response rating [8, 20]: 100
- Pigweed plant response rating [8, 21]: 85
- Plant response rating, Ragweed [9, 14]: 70
- Ragweed plant response rating [9, 15]: 90
- Plant response rating, Ragweed [9, 16]: 90
- Plant response rating, Ragweed [9, 17]: 95
- Plant response rating, Ragweed [9, 18]: 95
- Plant response rating, Ragweed [9, 19]: 98
- Ragweed plant response rating [9, 20]: 100
- Ragweed plant response rating [9, 21]: 95
- Plant response rating, Ryegrass, Italian [10, 14]: 90
- Ryegrass, Italian plant response rating [10, 15]: 95
- Plant response rating, Ryegrass, Italian [10, 16]: 95
- Plant response rating, Ryegrass, Italian [10, 17]: 90
- Plant response rating, Ryegrass, Italian [10, 18]: 95
- Plant response rating, Ryegrass, Italian [10, 19]: 90
- Ryegrass, Italian plant response rating [10, 20]: 95
- Ryegrass, Italian plant response rating [10, 21]: 95
- Plant response rating, Soybean (soybean (Glycine max); [14]): 5
- Soybean plant response rating (soybean (Glycine max); [15]): 10
- Plant response rating, Soybean (soybean (Glycine max); [16]): 5
- Plant response rating, Soybean (soybean (Glycine max); [17]): 20
- Plant response rating, Soybean (soybean (Glycine max); [18]): 10
- Plant response rating, Soybean (soybean (Glycine max); [19]): 20
- Soybean plant response rating (soybean (Glycine max); [20]): 45
- Soybean plant response rating (soybean (Glycine max); [21]): 10
- Plant response rating, Velvetleaf [11, 14]: 85
- Velvetleaf plant response rating [11, 15]: 85
- Plant response rating, Velvetleaf [11, 16]: 95
- Plant response rating, Velvetleaf [11, 17]: 85
- Plant response rating, Velvetleaf [11, 18]: 90
- Plant response rating, Velvetleaf [11, 19]: 95
- Velvetleaf plant response rating [11, 20]: 90
- Velvetleaf plant response rating [11, 21]: 90
- Plant response rating, Waterhemp [12, 14]: 70
- Waterhemp plant response rating [12, 15]: 65
- Plant response rating, Waterhemp [12, 16]: 90
- Plant response rating, Waterhemp [12, 17]: 80
- Plant response rating, Waterhemp [12, 18]: 95
- Plant response rating, Waterhemp [12, 19]: 95
- Waterhemp plant response rating [12, 20]: 100
- Waterhemp plant response rating [12, 21]: 90
- Plant response rating, Kochia (kochia (Kochia scoparia); [14]): 40
- Kochia plant response rating (kochia (Kochia scoparia); [15]): 70
- Plant response rating, Kochia (kochia (Kochia scoparia); [16]): 85
- Kochia plant response rating (kochia (Kochia scoparia); [21]): 80
- Plant response rating, Oat, Wild [13, 14]: 90
- Oat, Wild plant response rating [13, 15]: 95
- Plant response rating, Oat, Wild [13, 16]: 95
- Oat, Wild plant response rating [13, 21]: 95
